According to US5204352A, “Compounds exhibiting anti-parasitic activity and a method for their use” (The United States of America as represented by the …, priority 1987, dated 1993):

Test system: Trypanosoma rhodesiense
Assay: In vivo trypanocidal activity in infected mice (protocol based on Rane et al.)
Design: Activity at dosage, value in parentheses (increase in survival): unit not given here
Conditions: for Activity at dosage (C = Cures) / Activity at dosage, value in parentheses (increase in survival): peritoneal (Table 2)
Experimental: The compounds of the present invention were evaluated biologically in vivo with groups of 5 mice at various dose levels. Unless otherwise indicated, the data are for subcutaneous administration. Dose levels marked with an asterisk are for peritoneal administration in a HEC+T medium. In addition, Table 2 present results of peritoneal administration with substituted quanylhydrazones. The biological evaluation was done according to a standard protocol based on the method described by Rane et al., Amer. J. Trop. Med Hyg. 25:395 (1976). […]

[1] = 13.3* mg/kg, peritoneal in HEC+T medium (Table I)
[2] = 26* mg/kg, peritoneal in HEC+T medium (Table I)
[3] = 106* mg/kg, peritoneal in HEC+T medium (Table I)
[4] = 424* mg/kg, peritoneal in HEC+T medium (Table I)

C[n+]1c(-c2ccc(C=NNC3=NCCN3)cc2)cn2ccccc21 [BK50311]
Increase in survival (0.42 mg/kg, subcutaneous): 6.6 days
Trypanocidal activity, cures (0.42 mg/kg, subcutaneous): 2/5
Activity at dosage (C = Cures) (0.8 mg/kg): INAC
Increase in survival (0.83 mg/kg, subcutaneous): 1.5 days
Trypanocidal activity, cures (0.83 mg/kg, subcutaneous): 8/10
Increase in survival (1.66 mg/kg, subcutaneous): 22.0 days
Trypanocidal activity, cures (1.66 mg/kg, subcutaneous): 9/10
Activity at dosage, value in parentheses (increase in survival) (1.7 mg/kg): 1.0
Activity at dosage, value in parentheses (increase in survival) (3.3 mg/kg): 1.6
Trypanocidal activity, cures (3.3 mg/kg, subcutaneous): 5/5
Increase in survival (6.6 mg/kg, subcutaneous): 10.0 days
Trypanocidal activity, cures (6.6 mg/kg, subcutaneous): 3/5
Activity at dosage, value in parentheses (increase in survival) (6.7 mg/kg): 7.7
Activity at dosage, value in parentheses (increase in survival) (13 mg/kg): 9.0
Trypanocidal activity, cures (13.3 mg/kg, subcutaneous): 10/10
Activity at dosage, value in parentheses (increase in survival) (26 mg/kg): 13.5
Increase in survival [1]: 9.0 days
Trypanocidal activity, cures [1]: 9/10
Increase in survival [2]: 13.5 days
Trypanocidal activity, cures [2]: 13/15
Trypanocidal activity, cures (53* mg/kg, peritoneal in HEC+T medium (Table I)): 5/5
Trypanocidal activity, cures [3]: 10/10
Trypanocidal activity, cures (212* mg/kg, peritoneal in HEC+T medium (Table I)): 5/5
Trypanocidal activity, cures [4]: 0/10

C[n+]1c(-c2ccc(C=NNC(=N)N3CCOCC3)cc2)cn2ccccc21 [BK51890]
Activity at dosage, value in parentheses (increase in survival) (0.8 mg/kg): 1.7
Activity at dosage, value in parentheses (increase in survival) (1.7 mg/kg): 10.9
Activity at dosage, value in parentheses (increase in survival) (26 mg/kg): 5.9
Increase in survival (1.66* mg/kg, peritoneal in HEC+T medium (Table I)): 10.9 days
Trypanocidal activity, cures (3.3* mg/kg, peritoneal in HEC+T medium (Table I)): 5/5
Trypanocidal activity, cures (6.6* mg/kg, peritoneal in HEC+T medium (Table I)): 5/5
Trypanocidal activity, cures (13* mg/kg, peritoneal in HEC+T medium (Table I)): 5/5
Trypanocidal activity, cures [2]: 9/10
Trypanocidal activity, cures [3]: 5/5
Trypanocidal activity, cures [4]: 5/5

C[n+]1c(-c2ccc(C=NNC(=N)N)cc2)c(Br)n2ccccc21 [BK51907]
Activity at dosage (C = Cures) (0.8 mg/kg): INAC
Activity at dosage (C = Cures) (1.7 mg/kg): INAC
Activity at dosage, value in parentheses (increase in survival) (3.3 mg/kg): 1.2
Activity at dosage, value in parentheses (increase in survival) (6.7 mg/kg): 3.8
Activity at dosage, value in parentheses (increase in survival) (13 mg/kg): 7.0
Activity at dosage, value in parentheses (increase in survival) (26 mg/kg): 10.0
Activity at dosage, value in parentheses (increase in survival) (424 mg/kg): 2.0

Cc1ccc2n(c1)cc(-c1ccc(C=NNc3nc[nH]n3)cc1)[n+]2C [BK51961]
Activity at dosage (C = Cures) (13 mg/kg): INAC
Activity at dosage (C = Cures) (26 mg/kg): INAC
Activity at dosage (C = Cures) (53 mg/kg): INAC
Activity at dosage, value in parentheses (increase in survival) (106 mg/kg): 5.5
Activity at dosage, value in parentheses (increase in survival) (212 mg/kg): 6.3
Activity at dosage, value in parentheses (increase in survival) (424 mg/kg): 6.0

C[n+]1c(-c2ccc(C=NNC3=NCCN3)cc2)cn2ccsc21 [BK62620]
Increase in survival (13.3 mg/kg, subcutaneous): 28.0 days
Trypanocidal activity, cures (13.3 mg/kg, subcutaneous): 9/10

C[n+]1c(COc2ccc(C(=N)N)cc2)cn2ccccc21 [BK65330]
Increase in survival (13.3 mg/kg, subcutaneous): 12 days
Trypanocidal activity, cures (13.3 mg/kg, subcutaneous): 3/5

C[n+]1c(COc2ccc(C=NNC(=N)NO)cc2)cn2ccccc21 [BK75087]
Increase in survival (0.2 mg/kg, subcutaneous): 5.9 days
Trypanocidal activity, cures (0.2 mg/kg, subcutaneous): 2/5
Increase in survival (0.4 mg/kg, subcutaneous): 10 days
Trypanocidal activity, cures (0.4 mg/kg, subcutaneous): 3/5
Trypanocidal activity, cures (0.8 mg/kg, subcutaneous): 10/10
Trypanocidal activity, cures (6.6 mg/kg, subcutaneous): 5/5

CCN=C(NCC)NN=Cc1ccc(OCc2cn3ccccc3[n+]2C)cc1 [BL03933]
Increase in survival (1.6 mg/kg, subcutaneous): 6.3 days
Trypanocidal activity, cures (1.6 mg/kg, subcutaneous): 7/10
Trypanocidal activity, cures (3.3 mg/kg, subcutaneous): 5/5
Trypanocidal activity, cures (6.6 mg/kg, subcutaneous): 5/5

C[n+]1ccccc1COc1ccc(C=NNC2=NCCCN2)cc1 [BL07646]
Increase in survival (1.6 mg/kg, subcutaneous): 3.9 days
Trypanocidal activity, cures (1.6 mg/kg, subcutaneous): 1/10
Increase in survival (6.6 mg/kg, subcutaneous): 9.9 days
Trypanocidal activity, cures (6.6 mg/kg, subcutaneous): 3/5
Increase in survival (13 mg/kg, subcutaneous): 4.0 days
Trypanocidal activity, cures (13 mg/kg, subcutaneous): 9/10

C[n+]1c(-c2ccc(C=CC=NNC(=N)N)cc2)cn2ccccc21 [BL07815]
Trypanocidal activity, cures (1.6 mg/kg, subcutaneous): 0/10
Trypanocidal activity, cures (3.3 mg/kg, subcutaneous): 5/5
Trypanocidal activity, cures (6.6 mg/kg, subcutaneous): 5/5
Trypanocidal activity, cures (13 mg/kg, subcutaneous): 10/10
Trypanocidal activity, cures (26 mg/kg, subcutaneous): 15/15
Trypanocidal activity, cures (53 mg/kg, subcutaneous): 5/5
Trypanocidal activity, cures (106 mg/kg, subcutaneous): 10/10

C[n+]1c(-c2ccc(C=CC=NNC3=NCCCN3)cc2)cn2ccccc21 [BL07824]
Trypanocidal activity, cures (3.3 mg/kg, subcutaneous): 5/5
Trypanocidal activity, cures (6.6 mg/kg, subcutaneous): 5/5
Trypanocidal activity, cures (13 mg/kg, subcutaneous): 5/5

C[n+]1c(C=Cc2ccc(C=NNC(=N)N)cc2)cn2ccccc21 [BL09462]
Increase in survival (0.1 mg/kg, subcutaneous): 5.2 days
Trypanocidal activity, cures (0.1 mg/kg, subcutaneous): 6/10
Trypanocidal activity, cures (0.2 mg/kg, subcutaneous): 5/5
Trypanocidal activity, cures (0.8 mg/kg, subcutaneous): 10/10

Cn1c(COc2ccc(C=NNC3=NCCN3)cc2)[n+](C)c2ccccc21 [BL10018]
Increase in survival (0.4 mg/kg, subcutaneous): 6.8 days
Trypanocidal activity, cures (0.4 mg/kg, subcutaneous): 3/5
Trypanocidal activity, cures (1.6 mg/kg, subcutaneous): 10/10
Trypanocidal activity, cures (6.6 mg/kg, subcutaneous): 5/5

C[n+]1cccc(COc2ccc(C=NNC(=N)N3CCCC3)cc2)c1 [BL10027]
Increase in survival (0.8 mg/kg, subcutaneous): 5.2 days
Trypanocidal activity, cures (0.8 mg/kg, subcutaneous): 7/10
Trypanocidal activity, cures (3.3 mg/kg, subcutaneous): 5/5
Trypanocidal activity, cures (13 mg/kg, subcutaneous): 5/5

C[n+]1c(C=Cc2ccc(C=NNC3=NCCCN3)cc2)cn2ccccc21 [BL11202]
Trypanocidal activity, cures (0.4 mg/kg, subcutaneous): 5/5
Increase in survival (1.6 mg/kg, subcutaneous): 6.8 days
Trypanocidal activity, cures (1.6 mg/kg, subcutaneous): 9/10
Trypanocidal activity, cures (6.6 mg/kg, subcutaneous): 5/5
Trypanocidal activity, cures (26 mg/kg, subcutaneous): 15/15

C[n+]1ccc(COc2ccc(C=NNC3=NCCN3)cc2)cc1 [BL12129]
Increase in survival (3.3 mg/kg, subcutaneous): 6.8 days
Trypanocidal activity, cures (3.3 mg/kg, subcutaneous): 1/5
Increase in survival (13 mg/kg, subcutaneous): 5.0 days
Trypanocidal activity, cures (13 mg/kg, subcutaneous): 8/10
